Reference: the supplement of paper PMC10307832

Key:
Experiment in all cases: relative viability (nuclei count vs DMSO), 5 days (fraction); higher = more cells survive
Venetoclax + Crizotinib = compound: CC1(C)CCC(CN2CCN(c3ccc(C(=O)NS(=O)(=O)c4ccc(NCC5CCOCC5)c([N+](=O)[O-])c4)c(Oc4cnc5[nH]ccc5c4)c3)CC2)=C(c2ccc(Cl)cc2)C1 [Venetoclax] + C[C@@H](Oc1cc(-c2cnn(C3CCNCC3)c2)cnc1N)c1c(Cl)ccc(F)c1Cl [Crizotinib] (partner 1 µM)
Method in brief: (§1)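 Lung cancer cell lines were pin-tool dosed in 1536-well plates on the day after seeding, with either a lone drug or a fixed anchor-drug dose plus five library-drug doses (not always all listed) in √10 steps. Nuclei were counted on 4× images after 5 days. Relative viability is the ratio of treated-well to vehicle-well nuclei counts, with each value a median of duplicate plates.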

Venetoclax + Decitabine = compound: CC1(C)CCC(CN2CCN(c3ccc(C(=O)NS(=O)(=O)c4ccc(NCC5CCOCC5)c([N+](=O)[O-])c4)c(Oc4cnc5[nH]ccc5c4)c3)CC2)=C(c2ccc(Cl)cc2)C1 [Venetoclax] + Nc1ncn([C@H]2C[C@H](O)[C@@H](CO)O2)c(=O)n1 [Decitabine] (partner 2 µM)
Method in brief: as §1

Selumetinib + Tozasertib = compound: Cn1cnc2c(F)c(Nc3ccc(Br)cc3Cl)c(C(=O)NOCCO)cc21 [Selumetinib] + Cc1cc(Nc2cc(N3CCN(C)CC3)nc(Sc3ccc(NC(=O)C4CC4)cc3)n2)n[nH]1 [Tozasertib] (partner 0.1 µM)
Method in brief: as §1

Selumetinib + Vorinostat = compound: Cn1cnc2c(F)c(Nc3ccc(Br)cc3Cl)c(C(=O)NOCCO)cc21 [Selumetinib] + O=C(CCCCCCC(=O)Nc1ccccc1)NO [Vorinostat] (partner 1 µM)
Method in brief: as §1

Row | Cell Line | relative viability (Venetoclax + Crizotinib; first compound 0.01 µM) | relative viability (Venetoclax + Crizotinib; first compound 0.03162 µM) | relative viability (Venetoclax + Crizotinib; first compound 0.1 µM) | relative viability (Venetoclax + Crizotinib; first compound 0.3162 µM) | relative viability (Venetoclax + Crizotinib; first compound 1 µM) | relative viability (Venetoclax + Decitabine; first compound 0.01 µM) | relative viability (Venetoclax + Decitabine; first compound 0.03162 µM) | relative viability (Venetoclax + Decitabine; first compound 0.1 µM) | relative viability (Venetoclax + Decitabine; first compound 0.3162 µM) | relative viability (Venetoclax + Decitabine; first compound 1 µM) | relative viability (Selumetinib + Tozasertib; first compound 0.02 µM) | relative viability (Selumetinib + Tozasertib; first compound 0.06325 µM) | relative viability (Selumetinib + Tozasertib; first compound 0.2 µM) | relative viability (Selumetinib + Tozasertib; first compound 0.6325 µM) | relative viability (Selumetinib + Vorinostat; first compound 0.02 µM) | relative viability (Selumetinib + Vorinostat; first compound 0.06325 µM) | relative viability (Selumetinib + Vorinostat; first compound 0.2 µM) | relative viability (Selumetinib + Vorinostat; first compound 0.6325 µM)
1 | HCC-78 | 0.315 | 0.338 | 0.307 | 0.393 | 0.362 | 0.689 | 0.744 | 0.786 | 0.652 | 0.58 | 0.703 | 0.44 | 0.436 | 0.408 | 0.433 | 0.358 | 0.413 | 0.482
2 | HOP-62 | 0.896 | 0.867 | 0.79 | 1.1 | 0.83 | 0.182 | 0.203 | 0.199 | 0.216 | 0.218 | 0.377 | 0.317 | 0.376 | 0.328 | 0.579 | 0.556 | 0.555 | 0.349
3 | NCI-H1623 | – | – | – | – | – | – | – | – | – | – | 0.343 | 0.342 | 0.351 | 0.361 | – | – | – | –
4 | NCI-H3122 | 0.306 | 0.258 | 0.269 | 0.247 | 0.276 | 0.349 | 0.419 | 0.378 | 0.373 | 0.432 | 0.397 | 0.351 | 0.305 | 0.268 | 0.988 | 0.651 | 0.84 | 0.651
5 | RERF-LC-KJ | 0.742 | 0.872 | 1.08 | 0.879 | 0.785 | 0.69 | 0.73 | 0.69 | 0.666 | 0.611 | 0.541 | 0.489 | 0.465 | 0.44 | 0.649 | 0.656 | 0.629 | 0.637
6 | NCI-H1703 | 0.655 | 0.635 | 0.634 | 1.15 | 0.605 | – | – | – | – | – | – | – | – | – | – | – | – | –
7 | HCC-15 | 0.814 | 0.839 | 0.709 | 0.742 | 0.617 | 0.519 | 0.699 | 0.611 | 0.611 | 0.543 | 0.372 | 0.209 | 0.268 | 0.158 | 0.656 | 0.586 | 0.435 | 0.393
8 | NCI-H1666 | 0.94 | 0.985 | 1.02 | 1 | 0.916 | 0.719 | 0.783 | 0.748 | 0.676 | 0.741 | 0.589 | 0.489 | 0.528 | 0.554 | 1.02 | 0.902 | 1.06 | 0.86
9 | NCI-H1395 | – | – | – | – | – | 0.71 | 0.673 | 0.736 | 0.692 | 0.63 | 0.714 | 0.702 | 0.718 | 0.748 | 0.761 | 0.613 | 0.653 | 0.775
10 | LCLC-97TM1 | – | 0.306 | 0.342 | 0.301 | 0.312 | 0.242 | 0.236 | 0.238 | 0.204 | 0.222 | 0.201 | 0.255 | 0.216 | 0.223 | 0.925 | 0.714 | 0.661 | 0.437
11 | NCI-H1299 | 0.974 | 0.998 | 0.937 | 0.912 | 0.907 | – | – | – | – | – | – | – | – | – | – | – | – | –
12 | NCI-H1563 | 0.872 | 0.878 | 0.884 | 0.996 | 0.907 | – | – | – | – | – | – | – | – | – | – | – | – | –
13 | HCC-827 | 0.982 | 0.923 | 0.924 | 0.94 | 0.837 | 0.303 | 0.418 | 0.34 | 0.249 | 0.346 | 0.42 | 0.393 | 0.408 | 0.361 | 1 | 0.906 | 0.999 | 0.957
14 | NCI-H1651 | 0.866 | 0.856 | 0.879 | 0.889 | 0.825 | 0.611 | 0.701 | 0.548 | 0.512 | 0.665 | 0.644 | 0.643 | 0.591 | 0.537 | 0.554 | 0.552 | 0.564 | 0.572
15 | HCC-366 | 0.502 | 0.609 | 0.621 | 0.505 | 0.388 | 0.354 | 0.368 | 0.327 | 0.366 | 0.382 | 0.127 | 0.109 | 0.104 | 0.0897 | 0.335 | 0.41 | 0.344 | 0.445
16 | EKVX | 0.834 | 0.985 | 0.897 | 0.895 | 0.882 | 0.33 | 0.327 | 0.317 | 0.392 | 0.35 | 0.36 | 0.345 | 0.378 | 0.336 | 0.557 | 0.531 | 0.446 | 0.384
17 | NCI-H2228 | 0.432 | 0.519 | 0.538 | 0.427 | 0.544 | – | – | – | – | – | 0.247 | 0.255 | 0.211 | 0.204 | 0.744 | 0.627 | 0.63 | 0.619
18 | LK-2 | 0.192 | 0.214 | 0.262 | 0.248 | 0.253 | 0.204 | 0.359 | 0.305 | 0.231 | 0.294 | 0.17 | 0.189 | 0.221 | 0.144 | 0.296 | 0.288 | 0.296 | 0.711
19 | NCI-H1650 | 0.831 | 0.986 | – | 0.74 | 0.842 | 0.545 | 0.422 | 0.408 | 0.407 | 0.363 | 0.332 | 0.394 | 0.312 | 0.308 | 0.569 | 0.526 | 0.408 | 0.587
20 | COR-L23 | 0.631 | 0.696 | 0.601 | 0.778 | 0.543 | 0.458 | 0.478 | 0.444 | 0.454 | 0.39 | 0.211 | 0.187 | 0.171 | 0.163 | 0.554 | 0.537 | 0.485 | 0.456
21 | ABC-1 | 0.921 | 0.99 | 1.06 | 1.12 | 1.04 | 1.07 | 1.24 | 1.02 | 1.12 | 1.24 | 0.161 | 0.157 | 0.139 | 0.135 | 1.29 | 0.922 | 0.982 | 1.04
